# Test results from US7989451B2, “Tricyclic 1,2,4-triazine oxides and compositions for therapeutic use in cancer treatments” (Auckland Uniservices Limited, priority 2005, dated 2011).
row,melting point [°C],Compound
1,186 to 190,"CN(C)CCNc1nc2ccc3c(c2[n+]([O-])n1)CCC3 [Compound 6, N^1,N^1-Dimethyl-N^2-(1-oxido-8,9-dihydro-7H-indeno[5,4-e][1,2,4]triazin-3-yl)-1,2-ethanediamine]"
2,126 to 130,"CCN(CC)CCNc1nc2ccc3c(c2[n+]([O-])n1)CCC3 [Compound 8, N^1,N^1-Diethyl-N^2-(1-oxido-8,9-dihydro-7H-indeno[5,4-e][1,2,4]triazin-3-yl)-1,2-ethanediamine]"
3,148 to 151,"CCCN(CCC)CCNc1nc2ccc3c(c2[n+]([O-])n1)CCC3 [Compound 10, N^1-(1-Oxido-8,9-dihydro-7H-indeno[5,4-e][1,2,4]triazin-3-yl)-N^2,N^2-dipropyl-1,2-ethanediamine]"
4,152 to 155,"[O-][n+]1nc(NCCN2CCCCC2)nc2ccc3c(c21)CCC3 [Compound 12, N-[2-(1-Piperidinyl)ethyl]-8,9-dihydro-7H-indeno[5,4-e][1,2,4]triazin-3-amine 1-Oxide]"
5,270 to 272,"Nc1nc2cc3c(cc2[n+]([O-])n1)CCC3 [Compound 19, 7,8-Dihydro-6H-indeno[5,6-e][1,2,4]triazin-3-amine 1-Oxide]"
6,122 to 124,"CN(C)CCNc1nc2cc3c(cc2[n+]([O-])n1)CCC3 [Compound 22, N^1,N^1-Dimethyl-N^2-(1-oxido-7,8-dihydro-6H-indeno[5,6-e][1,2,4]triazin-3-yl)-1,2-ethanediamine]"
7,222 to 224,"[O-][n+]1nc(NCCO)nc2cc3c(cc21)CCC3 [Compound 24, 2-[(1-Oxido-7,8-dihydro-6H-indeno[5,6-e][1,2,4]triazin-3-yl)amino]ethanol]"
8,109 to 112,"CCN(CC)CCNc1nc2cc3c(cc2[n+]([O-])n1)CCC3 [Compound 26, N^1-(1-Oxido-7,8-dihydro-6H-indeno[5,6-e][1,2,4]triazin-3-yl)-N^2,N^2-diethyl-1,2-ethanediamine]"
9,95 to 97,"CCCN(CCC)CCNc1nc2cc3c(cc2[n+]([O-])n1)CCC3 [Compound 28, N^1-(1-Oxido-7,8-dihydro-6H-indeno[5,6-e][1,2,4]triazin-3-yl)-N^2,N^2-dipropyl-1,2-ethanediamine]"
10,107 to 110,"COCCN(C)CCNc1nc2cc3c(cc2[n+]([O-])n1)CCC3 [Compound 30, N^1-(1-Oxido-7,8-dihydro-6H-indeno[5,6-e][1,2,4]triazin-3-yl)-N^2-(2-methoxyethyl)-N^2-methyl-1,2-ethanediamine]"
11,41 to 42,"COCCCN(C)CCNc1nc2cc3c(cc2[n+]([O-])n1)CCC3 [Compound 32, N^1-(3-Methoxypropyl)-N^1-methyl-N^2-(1-oxido-7,8-dihydro-6H-indeno[5,6-e][1,2,4]triazin-3-yl)-1,2-ethanediamine]"
12,139 to 141,"COC1CN(CCNc2nc3cc4c(cc3[n+]([O-])n2)CCC4)C1 [Compound 34, N-[2-(3-Methoxy-1-azetidinyl)ethyl]-7,8-dihydro-6H-indeno[5,6-e][1,2,4]triazin-3-amine 1-Oxide]"
13,151 to 153,"[O-][n+]1nc(NCCN2CCCCC2)nc2cc3c(cc21)CCC3 [Compound 36, N-[2-(1-Piperidinyl)ethyl]-7,8-dihydro-6H-indeno[5,6-e][1,2,4]triazin-3-amine 1-Oxide]"
14,173 to 175,"CC1CCCC(C)N1CCNc1nc2cc3c(cc2[n+]([O-])n1)CCC3 (stereo not shown) [Compound 38, N-[2-(2,6-Dimethyl-1-piperidinyl)ethyl]-7,8-dihydro-6H-indeno[5,6-e][1,2,4]triazin-3-amine 1-Oxide]"
15,123 to 124,"COC1CCCN(CCNc2nc3cc4c(cc3[n+]([O-])n2)CCC4)C1 (stereo not shown) [Compound 40, N-[2-(3-Methoxy-1-piperidinyl)ethyl]-7,8-dihydro-6H-indeno[5,6-e][1,2,4]triazin-3-amine 1-Oxide]"
16,131 to 133,"COC1CCN(CCNc2nc3cc4c(cc3[n+]([O-])n2)CCC4)CC1 [Compound 42, N-[2-(4-Methoxy-1-piperidinyl)ethyl]-7,8-dihydro-6H-indeno[5,6-e][1,2,4]triazin-3-amine 1-Oxide]"
17,178 to 179,"[O-][n+]1nc(NCCN2CCOCC2)nc2cc3c(cc21)CCC3 [Compound 44, N-[2-(4-Morpholinyl)ethyl]-7,8-dihydro-6H-indeno[5,6-e][1,2,4]triazin-3-amine 1-Oxide]"
18,121 to 123,"[O-][n+]1nc(NCCN2CCCCCC2)nc2cc3c(cc21)CCC3 [Compound 46, N-[2-(1-Azepanyl)ethyl]-7,8-dihydro-6H-indeno[5,6-e][1,2,4]triazin-3-amine 1-Oxide]"
19,119 to 120,"[O-][n+]1nc(NCCN2CCCOCC2)nc2cc3c(cc21)CCC3 [Compound 48, N-[2-(1,4-Oxazepan-4-yl)ethyl]-7,8-dihydro-6H-indeno[5,6-e][1,2,4]triazin-3-amine 1-Oxide]"
20,190 to 190.5,"[O-][n+]1nc(NCCCO)nc2cc3c(cc21)CCC3 [Compound 50, 3-[(1-Oxido-7,8-dihydro-6H-indeno[5,6-e][1,2,4]triazin-3-yl)amino]-1-propanol]"

row,melting point [°C],Compound
1,59 to 61,"COCCN(C)CCCNc1nc2cc3c(cc2[n+]([O-])n1)CCC3 [Compound 52, N^1-(2-Methoxyethyl)-N^1-methyl-N^3-(1-oxido-7,8-dihydro-6H-indeno[5,6-e][1,2,4]triazin-3-yl)-1,3-propanediamine]"
2,101 to 102,"COC1CN(CCCNc2nc3cc4c(cc3[n+]([O-])n2)CCC4)C1 [Compound 54, N-[3-(3-Methoxy-1-azetidinyl)propyl]-7,8-dihydro-6H-indeno[5,6-e][1,2,4]triazin-3-amine 1-Oxide]"
3,111 to 112,"N#CC1CCN(CCCNc2nc3cc4c(cc3[n+]([O-])n2)CCC4)C1 (stereo not shown) [Compound 56, 1-{3-[(1-Oxido-7,8-dihydro-6H-indeno[5,6-e][1,2,4]triazin-3-yl)amino]propyl}-3-pyrrolidinecarbonitrile]"
4,120 to 121,"COC1CCN(CCCNc2nc3cc4c(cc3[n+]([O-])n2)CCC4)CC1 [Compound 58, N-[3-(4-Methoxy-1-piperidinyl)propyl]-7,8-dihydro-6H-indeno[5,6-e][1,2,4]triazin-3-amine 1-Oxide]"
5,139 to 141,"[O-][n+]1nc(NCCCN2CCOCC2)nc2cc3c(cc21)CCC3 [Compound 60, N-[3-(4-Morpholinyl)propyl]-7,8-dihydro-6H-indeno[5,6-e][1,2,4]triazin-3-amine 1-Oxide]"
6,151 to 152,"[O-][n+]1nc(NCCCCN2CCOCC2)nc2cc3c(cc21)CCC3 [Compound 62, N-[4-(4-Morpholinyl)butyl]-7,8-dihydro-6H-indeno[5,6-e][1,2,4]triazin-3-amine 1-Oxide]"
7,130 to 131,"[O-][n+]1ncnc2cc3c(cc21)CCC3 [Compound 64, 7,8-Dihydro-6H-indeno[5,6-e][1,2,4]triazine 1-Oxide]"
8,60 to 61,"C=CCc1nc2cc3c(cc2[n+]([O-])n1)CCC3 [Compound 69, 3-Allyl-7,8-dihydro-6H-indeno[5,6-e][1,2,4]triazine 1-Oxide]"
9,131 to 133,"[O-][n+]1nc(CCCO)nc2cc3c(cc21)CCC3 [Compound 70, 3-(1-Oxido-7,8-dihydro-6H-indeno[5,6-e][1,2,4]triazin-3-yl)-1-propanol]"
10,72 to 74,"O=CCCc1nc2cc3c(cc2[n+]([O-])n1)CCC3 [Compound 75, 3-(1-oxido-7,8-dihydro-6H-indeno[5,6-e][1,2,4]triazin-3-yl)propanal]"
11,275 to 277,"CC1Cc2cc3nc(N)n[n+]([O-])c3cc2C1 (stereo not shown) [Compound 94, 7-Methyl-7,8-dihydro-6H-indeno[5,6-e][1,2,4]triazin-3-amine 1-Oxide]"
12,119 to 121,"CC1Cc2cc3nc(NCCN(C)C)n[n+]([O-])c3cc2C1 (stereo not shown) [Compound 96, N^1,N^1-Dimethyl-N^2-(7-methyl-1 oxido-7,8-dihydro-6H-indeno[5,6-e][1,2,4]triazin-3-yl)-1,2-ethanediamine]"
13,138 to 140,"CC1Cc2cc3nc(NCCCN4CCOCC4)n[n+]([O-])c3cc2C1 (stereo not shown) [Compound 98, 7-Methyl-N-[3-(4-morpholinyl)propyl]-7,8-dihydro-6H-indeno[5,6-e][1,2,4]triazin-3-amine 1-Oxide]"
14,140 to 142,"CC1Cc2cc3nc(I)n[n+]([O-])c3cc2C1 (stereo not shown) [Compound 100, 3-Iodo-7-methyl-7,8-dihydro-6H-indeno[5,6-e][1,2,4]triazine 1-Oxide]"
15,70 to 71,"CC1Cc2cc3nc(CCCN4CCOCC4)n[n+]([O-])c3cc2C1 (stereo not shown) [Compound 102, 7-Methyl-3-[3-(4-morpholinyl)propyl]-7,8-dihydro-6H-indeno[5,6-e][1,2,4]triazine 1-Oxide]"
16,212 to 216,"CN(C)C1Cc2cc3nc(N)n[n+]([O-])c3cc2C1 (stereo not shown) [Compound 111, N^7,N^7-Dimethyl-7,8-dihydro-6H-indeno[5,6-e][1,2,4]triazine-3,7-diamine 1-Oxide]"
17,187 to 190,"CCNc1nc2cc3c(cc2[n+]([O-])n1)CC(N(C)C)C3 (stereo not shown) [Compound 113, N^3-Ethyl-N^7,N^7-dimethyl-7,8-dihydro-6H-indeno[5,6-e][1,2,4]triazine-3,7-diamine 1-Oxide]"
18,255 to 257,"Nc1nc2cc3c(cc2[n+]([O-])n1)CC(CO)C3 (stereo not shown) [Compound 124, (3-Amino-1-oxido-7,8-dihydro-6H-indeno[5,6-e][1,2,4]triazin-7-yl)methanol]"
19,150,"CCNc1nc2cc3c(cc2[n+]([O-])n1)CC(CO)C3 (stereo not shown) [Compound 126, [3-(Ethylamino)-1-oxido-7,8-dihydro-6H-indeno[5,6-e][1,2,4]triazin-7-yl]methanol]"

row,Compound,melting point [°C]
1,"CC(C)(C)OP(=O)(OCCCc1n[n+]([O-])c2cc3c(cc2[n+]1[O-])CCC3)OC(C)(C)C [Compound 73, 3-(3-(Di-tert-butoxyphosphoryloxy)propyl)-7,8-dihydro-6H-indeno[5,6-e][1,2,4]triazine 1,4-Dioxide]",129 to 131
